Data published in patent publication US8609858B2, “Spiro derivatives of parthenin as novel anticancer agents” (Council of Scientific & Industrial Research, priority 2008, dated 2013).

How the values were obtained:
[1] = test system: acute lymphoblastic leukemia Cells (MOLT-4); test: DNA fragmentation by DNA gel electrophoresis; format: cell-based, human; details: 10, 50 & 100 μM, 24 hrs
Protocol: DNA fragmentation was determined by electrophoresis of extracted genomic DNA from acute lymphoblastic leukemia Cells (MOLT-4). Briefly, exponentially growing cells (3×10^6 cells/ml) in 6 well plates were treated with “Compound-17” (1, 10, 50 and 100 μM) for 24 hrs. Cells were harvested, washed with PBS, pellets were dissolved in lysis buffer (10 mM EDTA, 50 mM Tris Buffer, pH 8.0, 0.5% w/v SDS and proteinase K 0.5 mg/ml) and incubated at 50° C. for 1 hr. lysate was further incubated with RNase A (0.5 mg/ml) at 50° C. for 1 hr. Finally, the DNA obtained was heated rapidly to 70° C., supplemented with loading dye and immediately resolved on to 1.5% agarose gel at 50 V for 2-3 hrs (FIG. 2).

SW-620 = test: In vitro cytotoxicity screening (sulphodamine B dye), SW-620; format: cell-based; details: Homo sapiens
Protocol: (§1) Cells at sub confluent stage were harvested from the flask by treatment with trypsin (0.5% in PBS containing 0.02% EDTA) for determination of cytotoxicity. […] The cell suspensions of required cell density were prepared in complete growth medium with gentamycin (50 μg/ml) for determination of cytotoxicity. The cells (100 μl/well) were inoculated in 96 well tissue culture plates. The cells were allowed to grow for 24 hrs temperature of 37° C. and in a humidified atmosphere of 5% CO2 in air. Stock solution of (20 mM) of test material was prepared in DMSO. The stock solution was serially diluted with complete growth medium containing 50 μg/ml of gentamycin to obtain […] working test solutions of 1., 2, 5, 10, 50 and 100 μM.
(§2) The media were supplemented with FCS (10%), penicillin (100 Units/ml), streptomycin (100 μg/ml) and glutamine (2 mM) and cells were grown in CO2 incubator (Hera cell, Heraeus, USA) at 37° C. with 90% humidity and 5% CO2.

PC-3 = test: In vitro cytotoxicity screening (sulphodamine B dye), PC-3; format: cell-based; details: Homo sapiens; PC-3 prostate cancer cell line
Protocol: as §1, §2

MOLT-4 cells = test: DNA cell cycle analysis by flow cytometry; format: cell-based, human; details: for Sub G1 population: 24 hrs
Protocol: Effect of “Compound-17” on DNA content by cell cycle phase distribution was assessed using human leukemia MOLT-4. The MOLT-4 cells (1×10^6 cells/ml) in RPMI-1640 medium were incubated with “Compound-17” (1, 10, 50 and 100 μM) for 24 hrs. The cells were then washed twice with ice-cold PBS, harvested, fixed with ice-cold PBS in 70% ethanol, and stored at −20° C. for 30 min. After fixation, the cells were incubated with RNase A (0.1 mg/ml) at 37° C. for 30 min, stained with propidium iodide (50 μg/ml) for 30 min on ice in dark, and then measured for DNA content using BD-LSR Flow cytometer (Becton Dickinson, USA) equipped with electronic doublet discrimination capability using blue (488 nm) excitation from argon laser. Data were collected in list mode on 10,000 events for FL2-A vs. FL2-W and analyzed (FIG. 3).^3d

DU-145 = test: In vitro cytotoxicity screening (sulphodamine B dye), DU-145; format: cell-based; details: Homo sapiens
Protocol: as §1, §2

[2] = test system: Ehrlich Ascites Carcinoma (EAC); test: Anti tumor activity on Ehrlich Ascites Carcinoma (EAC) bearing mice; format: in vivo; details: for % Tumor growth inhibition / Ascitic fluid volume (ml) Mean ± SE / Tumor cells in ascitic fluid (×10^7) Mean ± SE: nine days, day 12
From the text: Non-inbred swiss albino mice from an in-house colony were used in the present study. The breeding and experimental animals were housed in standard size polycarbonate cages providing internationally recommended space for each animal. Animals were fed balanced mice feed supplied by MIs Ashirwad Industries, Chandigarh (India) and autoclaved water was available ad libitum. Animals were cared as per the guide for the care and use of laboratory animals (1996), ILAR, Washington D.C. They were housed in controlled conditions of temperature (23±2° C.), humidity (50-60%) and 12:12 hrs of light: dark cycle. The study and the number of animals used were approved by the institutional animal ethics committee, IIIM, Jammu, India. The study was conducted as per the protocols of National Cancer Institute (NCl), USA (Geran et al., 1972).
Ehrlich Ascites Carcinoma (EAC) was propagated by transplanting 1×10^7 cells from an animal bearing 8-10 days old Ehrlich Ascites Carcinoma, into the peritoneal cavity of non-inbreed swiss mice. For testing, mice of the same sex weighing 20 ±3 g bearing ascites tumor were selected. 1×10^7 cells obtained from an animal bearing 8-10 days old ascites tumor were injected into peritoneal cavity of all animals used for testing (0 Day). On next day animals were randomized and divided into test groups (7 animals in each test group) and one tumor control group (10 animals). Test groups were treated with different doses of Parthenin (10 mg/kg, 25 mg/kg and 50 mg/kg) and its derivative Compound-17 (10 mg/kg, 25 mg/kg and 50 mg/kg, 100 mg/kg and 200 mg/kg) suspension in 1% gum acacia in their respective group intraperitonealy for nine consecutive days. Another test group was administered 5 FU @ 20 mg/kg i.p and served as positive control. The tumor control group was similarly administered normal saline (0.2 ml i.p). The percent tumor growth inhibition were measured on day 12 with respect to volume of ascitic fluid and the number of tumor cells in the ascitic fluid of peritoneal cavity (Geran et al., 1972; Singh et al., 2007).
The percent tumor growth inhibition was calculated as follow. % growth inhibition=100×(Average no. of cells in control group−Average no. of cells in test group)/Average no. of cells in control group Results: […]

## C[C@H]1CC[C@@H]2[C@@H](OC(=O)C23CC(c2c4ccccc4cc4ccccc24)=NO3)[C@]2(C)C(=O)C=C[C@@]12O (stereo partly drawn) [Compound -17]
[1]
  DNA ladder (DNA fragmentation): DNA ladder was observed
SW-620; SW-620 colon cancer cell line
  IC50: 4.3 µM
SW-620; at 5 μM, SW-620, read-out: cell growth inhibition
  inhibition at 5 µM: 72%
PC-3
  IC50: 4.9 µM
MOLT-4 cells; 1 μM
  Sub G1 population: 6.58%
MOLT-4 cells; 10 μM
  Sub G1 population: 33.09%
MOLT-4 cells; 50 μM
  Sub G1 population: 33.2%
MOLT-4 cells; 100 μM
  blockage of G1 phase of cell cycle: complete blockage of G1 phase
  Sub G1 population: 55%
DU-145; DU-145 prostate cancer cell line
  IC50: 4.6 µM
DU-145; at 5 μM, DU-145, read-out: cell growth inhibition
  inhibition at 5 µM: 85%
[2]; 10 mg/kg i.p.
  % Tumor growth inhibition: 7.74%
  Ascitic fluid volume (ml) Mean ± SE: 4.07 ± 0.35 mL
  Tumor cells in ascitic fluid (×10^7) Mean ± SE: 78.42 ± 2.90 ×10^7
[2]; 25 mg/kg i.p.
  % Tumor growth inhibition: 19.16%
  Ascitic fluid volume (ml) Mean ± SE: 3.62 ± 0.32 mL
  Tumor cells in ascitic fluid (×10^7) Mean ± SE: 68.71 ± 3.16 ×10^7
[2]; 50 mg/kg i.p.
  % Tumor growth inhibition: 27.23%
  Ascitic fluid volume (ml) Mean ± SE: 2.85 ± 0.37 mL
  Tumor cells in ascitic fluid (×10^7) Mean ± SE: 61.85 ± 4.20 ×10^7
[2]; 100 mg/kg i.p.
  % Tumor growth inhibition: 60.50%
  Ascitic fluid volume (ml) Mean ± SE: 2.07 ± 0.33 mL
  Tumor cells in ascitic fluid (×10^7) Mean ± SE: 33.57 ± 2.60 ×10^7
[2]; 200 mg/kg i.p., EAC bearing mice
  mortality of test animals: All animals died by 3rd day
